Measured values: US20070173456A1, “PREPTIN FRAGMENTS AND METHODS OF USE” (Auckland UniServices Limited, priority 2005, published 2007)

Legend:
[1] = tested on: isolated, perfused rat pancreas; settings: infusion into isolated, Buchanan et al. 2001; cited from earlier work
rat osteoblasts = experiment: Osteoblast proliferation, [3H]-thymidine incorporation; assay type: cell-based; settings: versus vehicle control; for proliferation of rat osteoblasts, as measured by thymidine incorporation (FIG. 1): primary fetal rat calvarial osteoblasts, peptide 1×10^−9 M, 20-24 hours; for proliferation of rat osteoblasts, as measured by thymidine incorporation, parallel comparison (FIG. 4): various concentrations, compared in parallel
Protocol: Osteoblasts were isolated from 20 day fetal rat calvariae as previously described (Cornish et al., American Journal of Physiology—Endocrinology & Metabolism 277: E779-E783, 1999). Briefly, calvariae were dissected aseptically and the frontal and parietal bones are stripped of their periosteum. Only the central portions of the bones, free from suture tissue, were collected. The calvariae were treated twice with phosphate buffered saline (PBS) containing 3 mM EDTA (pH 7.4) for 15 minutes at 37° C. in a shaking water bath. Calvariae were washed once in PBS and treated twice with 3 ml of collagenase (1 mg/ml) for 7 minutes at 37° C. After discarding supernatants from the first two collagenase digestions, calvariae were treated twice with 3 ml collagenase (2 mg/ml) for 30 minutes at 37° C. The supernatants from these third and fourth collagenase digestions were collected, pooled and centrifuged. The pelleted cells were washed in Dulbecco's modified Eagle's medium (DME) with 10% fetal calf serum (FCS), resuspended in DME/10% FCS, and placed in 75 cm^2 flasks. Cells were incubated under 5% CO2 and 95% air at 37° C. Cells were grown to confluence (approximately 5-6 days) and then subcultured.
To set up subcultures, cells were trypsinized in trypsin-EDTA (0.05%/0.53 mM), rinsed in minimal essential medium (MEM) with 5% FCS, resuspended in fresh medium, and seeded at 5×10^4 cells/ml in 24-well plates (0.5 ml cell suspension per well, i.e., 1.4×10^4 cells/cm^2).
To evaluate the proliferative responses of osteoblast cultures in the presence of preptin and various fragments of preptin, subconfluent cell cultures were growth arrested by incubation in MEM/0.1% bovine serum albumin 24 hours prior to addition of test compounds. Cells were cultured in the presence of full-length preptin (preptin 1-34), preptin 1-19, preptin 20-34, or in the absence of preptin compounds (control). Preptin compounds were added to a final concentration of 1×10^−9 M. A pulse of [^3H]-thymidine (1 […]) was added to each sample two hours prior to the end of each experimental incubation. The incubations were terminated 20-24 hours after addition of preptin compounds by washing the cells in MEM containing non-radioactive thymidine, followed by the addition of 10% trichloroacetic acid. The precipitate was washed twice either ethanol:ether (3:1) and the wells were desiccated at room temperature. The residue in each well was redissolved in 2 M KOH at 55° C. for 30 minutes, neutralized with 1 M HCl, and an aliquot was removed to quantitate incorporation of radioactivity in the samples. The results are depicted in FIG. 1. […] The results are representative of at least four independent assays.

Row | Substance | insulin secretion [1] | proliferation of rat osteoblasts, as measured by thymidine incorporation (FIG. 1) (rat osteoblasts) | proliferation of rat osteoblasts, as measured by thymidine incorporation, parallel comparison (FIG. 4) (rat osteoblasts)
1 | Asp Val Ser Thr R1 R2 R3 Val Leu Pro Asp R4 Phe Pro Arg Tyr Pro Val Gly Lys Phe Phe R5 R6 Asp Thr Trp R7 Gln Ser R8 Rg Arg Leu [preptin 1-34, reference compound] | significant increase in the second phase of secretion | stimulated | –
2 | Asp Val Ser Thr R1 R2 R3 Val Leu Pro Asp R4 Phe Pro Arg Tyr Pro Val Gly [preptin 1-19] | – | enhances osteoblast proliferation in vitro, to levels comparable to those stimulated by full-length preptin | significant increase in proliferation at 1×10^−9M
3 | preptin 20-34: a C-terminal fragment of preptin (KFFQYDTWKQSTQRL; Preptin; UniProt P01344 112-126, looked up, fragment) [reference compound] | – | No enhancement of osteoblast proliferation was observed | did not stimulate a significant increase in proliferation at any of the concentrations tested
